Experimental findings from patent US11919965B2, “Methods of treating multiple myeloma with bispecific anti-BCMA x anti-CD3 antibodies” (Regeneron Pharmaceuticals, Inc., priority 2019, dated 2024) are described below.

Assay in all cases: FACS surface BCMA after overnight incubation with anti-BCMA antibodies or DAPT
What all share (assay type): cell-based, human

Assay [1] relates to surface BCMA on MM1S cells. The conditions noted are these: stained with the anti-BCMA antibody. Here is the method: (§1) Flow cytometric analysis was utilized to determine the impact of overnight incubation of multiple myeloma cell lines with anti-BCMA antibodies on the level of surface BCMA. […] After 18 hours, wells were washed with cold FACS wash (PBS+1% filtered FBS) and resuspended in 667 nM of the same anti-BCMA antibody in cold stain buffer (Miltenyi 130-091-221) for 30 minutes on ice. After incubation, the cells were washed twice with cold FACS wash (PBS+1% filtered FBS) and bound antibody was detected by incubating with the appropriate anti-human secondary antibody (anti-hlgG or anti-HIS) on ice for an additional 30-45 minutes. After incubation, cells were washed, re-suspended in 200 μL cold PBS containing 1% filtered FBS and analyzed by flow cytometry on a BD FACS Canto II. Fold increase in staining was calculated by dividing the MFI of stained cells previously incubated overnight in BCMA abs or DAPT by the MFI of stained cells that were incubated overnight in media only.

Assay [2] deals with surface BCMA on Molp8 cells. The procedure: as §1
Assay [3] deals with surface BCMA on NCI-H929 cells. The procedure:
as §1

Assay [4] concerns surface BCMA on U266 cells. Here is the method: as §1

With `C[C@H](NC(=O)Cc1cc(F)cc(F)c1)C(=O)N[C@H](C(=O)OC(C)(C)C)c1ccccc1` [DAPT], the “MFI fold change over cells incubated in media only, Average” value in assay [1] worked out at 11.9 fold. The figures for the “fold increase of BCMA levels after overnight DAPT, range over detecting antibodies” value in assay [2], in assay [3] and in assay [4] were 2.4-8.6 fold, 2.3-4 fold and 5.3-9.0 fold, respectively.
